{"source": "patent US20210179586A1", "about": "“SOLID STATE FORMS OF BRANAPLAM AND THEIR PREPARATION” (TEVA PHARMACEUTICALS INTERNATIONAL GMBH, priority 2018, published 2021)", "key": {"[1]": {"experiment": "Solid state (polymorphic) stability of crystalline forms on storage, humidity, heat, pressure or grinding", "format": "physicochemical", "settings": "for stability (conversion to any other solid state form): 'stable' as defined in b57: less than 20% conversion at 60% RH/RT or 75% RH/40° C. for at least 1 month, or at 80-100% RH 7 days, 100° C. 30 minutes, 3 Ton 1 minute, strong grinding", "procedure": "As used herein the term “stable” in relation to crystalline Branaplam and salts thereof refers to less than 20%, less than 10%, less than 5%, less than 2%, less than 1%, or less than 0.5% conversion of crystalline Branaplam and salts thereof to any other solid state form of Branaplam when kept in storage for long term stability e.g. 60% RH/RT or 75% RH/40° C. for at least 1 month. Alternatively, crystalline Branaplam and salts thereof are stable when exposed to high humidity e.g. 80-100% RH for 7 days, high temperature e.g. 100° C. for 30 minutes, high mass pressure e.g. 3 Ton for 1 minute or upon strong grinding."}, "[2]": {"experiment": "Hygroscopicity: water absorption at 80% RH for 24 hours at RT, e.g. by TGA", "format": "physicochemical", "settings": "'non-hygroscopic' as defined in b56: less than 0.2% (w/w) absorption of water at 80% RH for 24 hours at RT", "procedure": "As used herein the term non-hygroscopic in relation to crystalline Branaplam and salts thereof refers to less than 0.2% (w/w) absorption of water by the crystalline Branaplam, when exposed to 80% relative humidity (“RH”) for 24 hours at room temperature (“RT”), as determined, for example, by TGA."}}, "note": "Structures can show the parent of a compound that is named as a salt.", "data": [{"smiles": "CC1(C)CC(Oc2ccc(-c3ccc(-c4cn[nH]c4)cc3O)nn2)CC(C)(C)N1", "note": "[Branaplam hydrochloride Form C1, Branaplam hydrochloride]", "values": [{"measurement": "stability (conversion to any other solid state form)", "setting": "[1]; hydrochloride", "result": "surprisingly stable"}, {"measurement": "hygroscopicity", "setting": "[2]", "result": "non-hygroscopic"}]}, {"smiles": "CC1(C)CC(Oc2ccc(-c3ccc(-c4cn[nH]c4)cc3O)nn2)CC(C)(C)N1", "note": "[Branaplam hydrochloride Form C3, Branaplam hydrochloride]", "values": [{"measurement": "stability upon heating and humidity", "setting": "[1]; heating and humidity, b57 gives e.g. 100° C. for 30 minutes, 80-100% RH for 7 days", "result": "stable upon heating and humidity"}]}, {"smiles": "CC1(C)CC(Oc2ccc(-c3ccc(-c4cn[nH]c4)cc3O)nn2)CC(C)(C)N1", "note": "[Branaplam Form B1, Branaplam]", "values": [{"measurement": "stability (conversion to any other solid state form)", "setting": "[1]", "result": "stable"}]}]}
